Experimental data from patent US8153767B2 (priority 2006, dated 2012).
Values after ≈ are worked out from the molar mass of the structure shown.

Tests used:
[1] = test system: rabbit antiserum (aflatoxin B1 hapten immunogen)
[2] = test system: mouse antiserum (aflatoxin B1 hapten immunogen)
[3] = test system: monoclonal antibody useful for detecting all aflatoxins (JP-A 4-360695); details: cited from earlier work
[4] = test system: antibody AF-1 (JP-A 63-219394); details: cited from earlier work

Row | Structure (SMILES) | IC50 [1] [ng/mL] | IC50 [2] [ng/mL] | crossreactivities in terms of IC50 [3] [ng/mL] | ability to bind to G1 relative to its ability to bind to B1 or B2 [4]
1 | COc1cc2c(c3oc(=O)c4c(c13)CCC4=O)C1C=COC1O2 (stereo not drawn) [Aflatoxin B1] | 0.07 (≈ 0.224 nM) | 0.07 (≈ 0.224 nM) | 0.44 | 
2 | COc1cc2c(c3oc(=O)c4c(c13)CCC4=O)C1CCOC1O2 (stereo not drawn) [Aflatoxin B2] | 1.7 (≈ 5.41 nM) | 1.5 (≈ 4.77 nM) | 2.1 | 
3 | COc1cc2c(c3oc(=O)c4c(c13)CCOC4=O)C1C=COC1O2 (stereo not drawn) [Aflatoxin G1] | 0.63 (≈ 1.92 nM) | 0.6 (≈ 1.83 nM) | 2.4 | 1/10
4 | COc1cc2c(c3oc(=O)c4c(c13)CCOC4=O)C1CCOC1O2 (stereo not drawn) [Aflatoxin G2] | 18 (≈ 54.5 nM) | 16 (≈ 48.4 nM) | 5.2 | 
5 | COc1cc2c(c3oc(=O)c4c(c13)CCC4=O)C1(O)C=COC1O2 (stereo not drawn) [Aflatoxin M1] | 14 (≈ 42.6 nM) | 11 (≈ 33.5 nM) |  | 
